Assay results taken from patent US20120004160A1, “METHODS FOR IDENTIFYING AND COMPOUNDS USEFUL FOR THE DIAGNOSIS AND TREATMENT OF DISEASES INVOLVING INFLAMMATION” (Glaxo Group Ltd., priority 2009, published 2012).

System: human primary macrophages
Test: IL-10 release measured in the same supernatant (additional cytokine measurements)
Format: cell-based
Details: effect of Ad-shRNA on IL-10 release; supernatant of on-target assay, macrophages triggered with IgG-coated beads; symbols not defined
Method: 20 μL of supernatant was used in a TNFα readout assay (Meso Scale Discovery, (MSD), Gaithersburg, Md.). The measurements were performed according to manufacturer's instructions. 20 μL of sample solution were transferred by Tecan384 head on a Tecan freedom station to wells of a 384 well TNFα MSD readout plate(Meso Scale Discovery Catalog #K211BHB-6). A calibrator curve using calibrator from MSD was created using a multichannel pipette. The calibrator curve typically started at 10 ng/mL followed by 6 steps of a 3-fold dilution with a final volume of 10 μL. Plates were sealed and incubated for 2 hours on a shaking platform (set at ˜100 rounds per minute) at room temperature. Detection antibody (1.0 μg/mL) was added to the wells (10 μL for the calibrator and 20 μL for the samples) using a repetitive multichannel. Plates were sealed and incubated overnight at room temperature on a shaking platform (set at ˜100 rounds per minute). The plates were washed 3 times with PBS+0.05% Tween-20 using a Tecan washer (TECAN type, PW384). 35 μl of 2× Read Buffer T was added to each well using a multidrop. After addition of Read Buffer, the plates were read on an MSD SI6000 reader.
For the measurements of additional cytokines, such as IL-10, the supernatants were transferred using the TECAN Freedom with a TEMO-384 head. The cytokines were measured using 384 well plates purchased at Meso Scale Discovery and the methodology used is the same as described in Example 5. Hits were prioritized based on effects on IL-10 release.
In an shRNA screen there is the possibility that the observed effects are due to off-target effects: the shRNA knock down construct has an effect on expression of a different mRNA than the intended mRNA. To exclude possible off-target effects by the knockdown constructs the following “on-target” analysis was followed. For each target, the original Ad-shRNA plus 5 extra Ad-shRNA constructs against the same target were tested in the primary screening assay. If at least two independent shRNA sequences (including original confirmed drug targetAd-shRNA) give the same effect in one donor, the probability this is due to off target shRNA effects is negligible and the effect is declared “on-target”. For the on-target assay, the methods similar to the screen and rescreen were used as described in Examples 5 and 6. The TNFα release assay was performed as per Rescreen (see Example 6) except that the negative control viruses (Luc_v13) were repropagated alongside the on-target viruses. In total, 40 targets were taken along in the on-target assay, and for 15 targets multiple shRNA came up as a hit. In addition, IL-10 release was measured in the same supernatant as described in Examples 5 and 7. Table 3 indicates the effects of the shRNAs on the IL-10 release.

IL-10 sparing, ✓:
CTTGTGCGATGCTTTGAAC: Ad-shRNA knock-down construct, KD target sequence against ATIC
CCAATGGTTACATGGCTCC: Ad-shRNA knock-down construct, KD target sequence against GRK7
CTTGTGTGCCAGTGGATGC: Ad-shRNA knock-down construct, KD target sequence against BRS3
CTCAGGAAGGTCTTTCCAC: Ad-shRNA knock-down construct, KD target sequence against SNF1LK
TATGCTGTAGGCTGCCTGC: Ad-shRNA knock-down construct, KD target sequence against PIK3CB (listed as Homo sapiens)
CATACTGGAGCCTGTAACC: Ad-shRNA knock-down construct, KD target sequence against TNFRSF10C
GGTGTCTTACTGCTGACTC: Ad-shRNA knock-down construct, target sequence against TNFRSF11A (Table 3 only, no SEQ ID NO) (the letters are possibly those of the target site)
AGACATGGATGGGAAAGAC: Ad-shRNA knock-down construct, KD target sequence against CBR3 (the letters are possibly those of the target site)
TGTCTACACCACTGCTGCC: Ad-shRNA knock-down construct, KD target sequence against RYR1 (the letters are possibly those of the target site; listed as Homo sapiens)
GTTCTGCTGTGCATCTGCC: Ad-shRNA knock-down construct, KD target sequence against OPRL1
ATGACCCTACAGGTTTACC: Ad-shRNA knock-down construct, KD target sequence against NEK10
